Species on record: Rattus norvegicus
Assay: Open TG-GATES - Regimen: Single
Assay type: toxicity, organism-based, Sprague-Dawley
Parameters: regimen Single, gender Male, age 6 weeks
Conditions: in vivo, po, 20 mg/kg, route gavage, dose level Middle; for APTT / Bas / Eos / Fbg / Hb / Ht / Lym / MCH / MCHC / MCV / Mono / Neu / PT / Plat / RBC / Ret / WBC: tissue Blood; for KIDNEY_L / KIDNEY_R / KIDNEY_TOTAL: tissue Kidney; for LIVER: tissue Liver; for A/G / ALP / ALT / AST / BUN / CRE / Ca / Cl / DBIL / GLC / IP / K / LDH / Na / PL / RALB / TBIL / TC / TG / TP / gamma-GTP: tissue Plasma

`CC(C)NNC(=O)c1ccncc1` [IPRONIAZID] showed a TERMINAL_BW (9 h) of 207.6 g, an APTT (9 h) of 22.8 s and a Bas (9 h) of 0%. The Eos (9 h) was 1%, the Fbg (9 h) was 306.4 mg/dL and the Hb (9 h) was 13.1 g/dL. The Ht (9 h) was 37.8%, the Lym (9 h) was 76.4% and the MCH (9 h) was 21.4 pg. The MCHC (9 h) was 34.6%, the MCV (9 h) was 61.8 fL and the Mono (9 h) was 2.6%. The Neu (9 h) was 19.4%, the PT (9 h) was 15.5 s and the Plat (9 h) was 116.3 x10_4/uL. The RBC (9 h) was 612.4 x10_4/ul, the Ret (9 h) was 7.7% and the WBC (9 h) was 87.5 x10_2/uL. The KIDNEY_L (9 h) was 1 g, the KIDNEY_R (9 h) was 1 g and the KIDNEY_TOTAL (9 h) was 2 g. The LIVER (9 h) was 8.6 g, the A/G (9 h) was 1.3 and the ALP (9 h) was 1268.2 IU/L. For the same compound, the ALT (9 h) was 35 IU/L, the AST (9 h) was 70.2 IU/L and the BUN (9 h) was 8.4 mg/dL. For the same compound, the CRE (9 h) was 0.2 mg/dL, the Ca (9 h) was 10.6 mg/dL and the Cl (9 h) was 106.6 meq/L. The DBIL (9 h) was 0.01 mg/dL, the GLC (9 h) was 176.2 mg/dL and the IP (9 h) was 10.2 mg/dL. For the same compound, the K (9 h) was 4.2 meq/L, the LDH (9 h) was 171 IU/L and the Na (9 h) was 141.4 meq/L. For the same compound, the PL (9 h) was 130.4 mg/dL, the RALB (9 h) was 3 g/dL and the TBIL (9 h) was 0.02 mg/dL. For the same compound, the TC (9 h) was 79.2 mg/dL, the TG (9 h) was 35.8 mg/dL and the TP (9 h) was 5.4 g/dL. For the same compound, the gamma-GTP (9 h) was 1 IU/L, the TERMINAL_BW (24 h) was 213.8 g and the APTT (24 h) was 21.6 s. The Bas (24 h) was 0%, the Eos (24 h) was 0.6% and the Fbg (24 h) was 318.8 mg/dL. The Hb (24 h) was 12.9 g/dL, the Ht (24 h) was 37.7% and the Lym (24 h) was 76.8%. It also gave an MCH (24 h) of 20.9 pg, an MCHC (24 h) of 34.2% and an MCV (24 h) of 60.9 fL. The Mono (24 h) was 2%, the Neu (24 h) was 19.6% and the PT (24 h) was 15.9 s. For the same compound, the Plat (24 h) was 125.4 x10_4/uL, the RBC (24 h) was 618.2 x10_4/ul and the Ret (24 h) was 7.7%. The WBC (24 h) was 81.3 x10_2/uL, the KIDNEY_L (24 h) was 1 g and the KIDNEY_R (24 h) was 1 g. It also gave a KIDNEY_TOTAL (24 h) of 1.9 g, an LIVER (24 h) of 10.1 g and an A/G (24 h) of 1.2. It also gave an ALP (24 h) of 1498.8 IU/L, an ALT (24 h) of 38.2 IU/L and an AST (24 h) of 73 IU/L. The BUN (24 h) was 17.8 mg/dL, the CRE (24 h) was 0.2 mg/dL and the Ca (24 h) was 10.9 mg/dL. The Cl (24 h) was 105.4 meq/L, the DBIL (24 h) was 0.006 mg/dL and the GLC (24 h) was 177.6 mg/dL. It also gave an IP (24 h) of 8 mg/dL, a K (24 h) of 4.5 meq/L and an LDH (24 h) of 275.4 IU/L. The Na (24 h) was 141.6 meq/L, the PL (24 h) was 134.8 mg/dL and the RALB (24 h) was 3 g/dL. For the same compound, the TBIL (24 h) was 0.006 mg/dL, the TC (24 h) was 73 mg/dL and the TG (24 h) was 85.6 mg/dL. The TP (24 h) was 5.5 g/dL and the gamma-GTP (24 h) was 1.6 IU/L.

Reference: ChEMBL document CHEMBL3885861, “Open TG-GATES”
